Measured values from paper PMC6269792, “Arylsulfonylamino-Benzanilides as Inhibitors of the Apical Sodium-Dependent Bile Salt Transporter (SLC10A2)” (Molecules, 2013).

How the values were obtained:
Human ASBT = biological target: T1, Human ASBT (Homo sapiens, UniProt Q12908); test: ASBT inhibition assay: [3H]-taurocholic acid uptake in HEK293T cells transiently transfected with human ASBT; format: cell-based; details: for inhibition at 10 µM: HEK-293T; for IC50: inhibitor concentration that gives 50% taurocholate uptake compared to no inhibitor control
T1 construct: expressed in transfected cells; host or cells: HEK293T
T1 sequence (Q12908 1-348): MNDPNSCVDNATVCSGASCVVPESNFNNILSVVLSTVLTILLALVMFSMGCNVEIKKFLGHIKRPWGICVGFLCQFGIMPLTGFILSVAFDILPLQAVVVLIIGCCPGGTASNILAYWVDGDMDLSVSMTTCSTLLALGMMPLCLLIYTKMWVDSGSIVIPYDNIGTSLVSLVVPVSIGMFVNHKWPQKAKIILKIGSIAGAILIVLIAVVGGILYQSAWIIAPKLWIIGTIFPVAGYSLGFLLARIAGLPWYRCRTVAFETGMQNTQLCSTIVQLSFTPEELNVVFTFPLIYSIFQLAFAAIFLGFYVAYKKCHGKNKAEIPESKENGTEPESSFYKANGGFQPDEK
Protocol: In vitro inhibitory activity of all target compounds against ASBT was evaluated using a radioisotope-based assay. All the newly synthesized derivatives were initially tested at 10 μM concentration (Table 1).
HEK293T was obtained from the American Type Culture Collection (Manassas, VA, USA), and grown in MEM supplemented with 100 U/mL penicillin and […] streptomycin and 10% heat-inactivated fetal bovine serum. Human ASBT expression construct was prepared as previously described. HEK293T cells were seeded in 12 well plates and transiently transfected with 0.5 μg/well pcDNA3.1/ASBT or negative control plasmid pcDNA3.1 using lipofactamine 2000 (Invitrogen, Carlsbad, CA, USA) according to the manufacturer’s instructions. Twenty-four hours after transfection, HEK293T cells were assayed for taurocholic acid uptake as previously described with minor modifications. […] To terminate the transport process, the plates were chilled on ice and the cells were immediately washed with ice-cold buffer three times. Cells were lysed with 0.3 mL lysis buffer (0.5% triton x-100) and shaken vigorously for 20 min. The radioactivity of the cell lysate was counted using a MicroBeta^2 Liquid Scintillation and Luminescence Counter (PerkinElmer Life Sciences). Protein concentration of the lysate was used to normalize uptake activity.
The inhibition rate was calculated using the following formula: Inhibition Rate (%) = [(1 − (A − C)/(B − C)] × 100
A, [^3H] uptake value of test compound in [^3H]-TCA buffer added to pcDNA3.1/ASBT transfected cells; B, [^3H] uptake value of DMSO (without inhibitor) in [^3H]-TCA buffer added to pcDNA3.1/ASBT transfected cells; C, [^3H] uptake value of Blank sample (DMSO) in [^3H]-TCA buffer added to empty vector (pcDNA3.1) transfected cells.

Compound: O=C(Nc1cccc(OC(F)(F)F)c1)c1ccc(NS(=O)(=O)c2cccc([N+](=O)[O-])c2)cc1 [Compound 5c1, 4-(3-Nitrophenylsulfonamido)-N-(3-(trifluoromethoxy)phenyl)benzamide]
- inhibition at 10 µM (Human ASBT): 29.6 ± 3.5%
- melting point: 177.3 to 178.2 °C

Compound: O=C(Nc1cccc(OC(F)(F)F)c1)c1ccccc1NS(=O)(=O)c1cccc(F)c1 [Compound 5e4, 2-(3-Fluorophenylsulfonamido)-N-(3-(trifluoromethoxy)phenyl)benzamide]
- inhibition at 10 µM (Human ASBT): 45.7 ± 3.6%
- melting point: 166.8 to 168.7 °C

Compound: O=C(Nc1ccc(F)c(Cl)c1)c1ccccc1NS(=O)(=O)c1ccc([N+](=O)[O-])cc1 [Compound 5d2, N-(3-Chloro-4-fluorophenyl)-2-(4-nitrophenylsulfonamido)benzamide]
- inhibition at 10 µM (Human ASBT): 75.5 ± 4.4%
- melting point: 226.4 to 227.1 °C

Compound: O=C(Nc1cccc(OC(F)F)c1)c1cccc(NS(=O)(=O)c2cccc([N+](=O)[O-])c2)c1 [Compound 5b2, N-(3-(Difluoromethoxy)phenyl)-3-(3-nitrophenylsulfonamido)benzamide]
- inhibition at 10 µM (Human ASBT): 30.6 ± 4.3%
- melting point: 159.8 to 160.6 °C

Compound: O=C(Nc1cccc(OC(F)(F)F)c1)c1ccccc1NS(=O)(=O)c1ccc([N+](=O)[O-])cc1 [Compound 5d5, 2-(4-Nitrophenylsulfonamido)-N-(3-(trifluoromethoxy)phenyl)benzamide]
- inhibition at 10 µM (Human ASBT): 66.7 ± 3.9%
- melting point: 198.8 to 199.4 °C

Compound: O=C(Nc1cccc(OC(F)F)c1)c1ccccc1NS(=O)(=O)c1cccc([N+](=O)[O-])c1 [Compound 5a3, N-(3-(Difluoromethoxy)phenyl)-2-(3-nitrophenylsulfonamido)benzamide]
- inhibition at 10 µM (Human ASBT): 89 ± 2.6%
- IC50 (Human ASBT): 2840 ± 520 nM
- melting point: 127.4 to 128.2 °C

Compound: COc1cccc(S(=O)(=O)Nc2ccccc2C(=O)Nc2ccc(C)c(C(F)(F)F)c2)c1 [Compound 5f3, 2-(3-Methoxyphenylsulfonamido)-N-(4-methyl-3-(trifluoromethyl)phenyl)benzamide]
- inhibition at 10 µM (Human ASBT): 43 ± 3.2%
- melting point: 165.7 to 166.6 °C

Compound: O=C(Nc1ccc(Cl)cc1Cl)c1ccccc1NS(=O)(=O)c1cccc(OC(F)(F)F)c1 [Compound 5g1, N-(2,4-Dichlorophenyl)-2-(3-(trifluoromethoxy)phenylsulfonamido)benzamide]
- inhibition at 10 µM (Human ASBT): 89.3 ± 3.3%
- IC50 (Human ASBT): 910 ± 180 nM
- melting point: 151.6 to 152.8 °C

Compound: O=C(Nc1ccc(F)c(Cl)c1)c1cccc(NS(=O)(=O)c2cccc([N+](=O)[O-])c2)c1 [Compound 5b1, N-(3-Chloro-4-fluorophenyl)-3-(3-nitrophenylsulfonamido)benzamide]
- inhibition at 10 µM (Human ASBT): 66.3 ± 5%
- melting point: 161.3 to 162.6 °C

Compound: COc1cccc(S(=O)(=O)Nc2ccccc2C(=O)Nc2ccc(F)c(Cl)c2)c1 [Compound 5f2, N-(3-Chloro-4-fluorophenyl)-2-(3-methoxyphenylsulfonamido)benzamide]
- inhibition at 10 µM (Human ASBT): 59.5 ± 3.6%
- melting point: 181.9 to 183.2 °C

Compound: Cc1ccc(NC(=O)c2ccccc2NS(=O)(=O)c2ccc([N+](=O)[O-])cc2)cc1C(F)(F)F [Compound 5d3, N-(4-Methyl-3-(trifluoromethyl)phenyl)-2-(4-nitrophenylsulfonamido)benzamide]
- inhibition at 10 µM (Human ASBT): 73.7 ± 3.8%
- melting point: 198.8 to 199.6 °C

Compound: COc1cccc(S(=O)(=O)Nc2ccccc2C(=O)Nc2ccc(Cl)c(Cl)c2)c1 [Compound 5f5, N-(3,4-Dichlorophenyl)-2-(3-methoxyphenylsulfonamido)benzamide]
- inhibition at 10 µM (Human ASBT): 20.1 ± 1.9%
- melting point: 160.3 to 161.4 °C

Compound: O=C(Nc1ccc(Cl)c(Cl)c1)c1ccccc1NS(=O)(=O)c1cccc(OC(F)(F)F)c1 [Compound 5g5, N-(3,4-Dichlorophenyl)-2-(3-(trifluoromethoxy)phenylsulfonamido)benzamide]
- inhibition at 10 µM (Human ASBT): 80.8 ± 4.3%
- IC50 (Human ASBT): 1220 ± 200 nM

Compound: COc1ccc(NC(=O)c2ccccc2NS(=O)(=O)c2cccc([N+](=O)[O-])c2)cc1O [Compound 5a6, N-(3-Hydroxy-4-methoxyphenyl)-2-(3-nitrophenylsulfonamido)benzamide]
- inhibition at 10 µM (Human ASBT): 32.1 ± 3.3%
- melting point: 168.9 to 170.1 °C
